Assay results as given in patent US9521846B2, “Template-fixed peptidomimetics with antimicrobial activity” (priority 2006, dated 2016).
Converted amounts (≈) assume the structure as drawn. Non-standard residues stand in square brackets, D forms with d. Residues, ends and D or L forms follow the SMILES beside them. Dab = NCC[C@H](N)C(=O)O

How the values were obtained:
[1] = system: human red blood cells (hRBC); assay: Hemolysis; type: cell-based; conditions: 100
HELA cells (Acc57) = assay: Cytotoxicity assay, MTT reduction (LC 50, GI 50); type: cell-based
How it was run: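 Read-out was MTT reduction (A595) after 48 h peptide exposure (12.5–50 μM, triplicates) of HeLa cells plated at 7.0×10^3/well and precultured 24 h. Growth % was normalised to a time-zero reading. Linear trend interpolation gave the concentration at −50% growth (LC50) and at 50% growth (GI50).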

[2] = Plasma stability, rat plasma; type: in vitro ADME
[3] = Plasma stability, human plasma; type: in vitro ADME
[4] = system: Pseudomonas aeruginosa P1021913; type: cell-based; conditions: P1021913
How it was run: (§1)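 Antibacterial activity by modified NCCLS broth microdilution in Mueller-Hinton broth + 0.02% BSA. Inoculum was about 10^6 CFU/ml before 1:1 mixing with two-fold serial peptide dilutions.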

[5] = system: Pseudomonas aeruginosa P8191900; type: cell-based; conditions: P8191900
How it was run: as §1

[6] = system: Pseudomonas aeruginosa P1021903; type: cell-based; conditions: P1021903
How it was run: as §1

[7] = system: Pseudomonas aeruginosa IMP 1 Livermore 3140; type: cell-based; conditions: IMP 1 Livermore 3140
How it was run: as §1

P. aeruginosa ATCC 27853 = type: cell-based, Pseudomonas aeruginosa; conditions: ATCC 27853
How it was run: as §1

[8] = system: Pseudomonas aeruginosa (ATCC 27853); assay: In vivo septicemia assay; set-up: species or system CD-1 mice; conditions: after 1 and 5 h, groups of 6 mice
Experimental: Groups of 6 CD-1 (Crl.) derived male mice weighing 24±2 g were used. The mice were each inoculated intravenously (IV) with an LD90-100 of Pseudomonas aeruginosa (ATCC 27853) (9×10^6 CFU/0.5 ml/mouse) in brain heart infusion broth without 5% mucin. Compound at doses of 5, 2.5, 1, 0.5, 0.25 and 0.1 mg/kg, vehicle (0.9% NaCl, 10 ml/kg) was administered subcutaneously (SC) to test animals at 1 hour after bacterial inoculation. Also, an additional group was treated twice with compound at a dose of 5 mg/kg at 1 and 6 hours after bacterial inoculation. Mortality was recorded once daily for 7 days following the bacterial inoculation and an increase of survival of the animals by 50 percent or more (^3 50%) after the bacterial inoculation, relative to vehicle control, indicates significant antimicrobial effect. The MED (ED50) was determined by nonlinear regression using Graph-Pad Prism (Graph Pad Software, USA).
Septicaemia experiment in mice: LD90-100 of Pseudomonas aeruginosa (ATCC 27853) (9×10^6 CFU/0.5 ml/mouse IV and after 1 h Ex. 1 s.c.
Septicaemia experiment in mice: LD90-100 of Pseudomonas aeruginosa (ATCC 27853) (9×10^6 CFU/0.5 ml/mouse IV), and after 1 and 5 h Ex. 40 s.c.
Septicaemia experiment in mice: LD90-100 of Pseudomonas aeruginosa (ATCC 27853) (9×10^6 CFU/0.5 ml/mouse IV), and after 1 and 5 h Ex. 50 s.c.

Row | Structure (SMILES) | Hemolysis at 100 μg/ml [1] | Cytotoxicity GI50 Hela cells (HELA cells (Acc57)) | Average MIC (P. aeruginosa) | Stability rat Plasma t1/2 [2] | Stability human Plasma t1/2 [3] | MIC P. aeruginosa P1021913 [4] | MIC P. aeruginosa P8191900 [5] | MIC P. aeruginosa P1021903 [6] | MIC P. aeruginosa IMP1 Livermore 3140 [7] | MIC P. aeruginosa ATCC 27853 (P. aeruginosa ATCC 27853) | Dead ([8]; 2 × 0.1 mg/kg) | Survivors ([8]; 2 × 0.1 mg/kg) | Dead ([8]; 2 × 0.3 mg/kg) | Survivors ([8]; 2 × 0.3 mg/kg) | Dead ([8]; 2 × 1 mg/kg) | Survivors ([8]; 2 × 1 mg/kg) | Dead ([8]; 2 × 3 mg/kg) | Survivors ([8]; 2 × 3 mg/kg) | Dead ([8]; 2 × 10 mg/kg) | Survivors ([8]; 2 × 10 mg/kg)
1 | CC[C@H](C)[C@@H]1NC(=O)[C@H](Cc2c[nH]c3ccccc23)NC(=O)[C@H]([C@@H](C)O)NC(=O)[C@@H]2CCCN2C(=O)[C@H]2CCCN2C(=O)[C@H](CCN)NC(=O)CNC(=O)[C@H](CCN)NC(=O)[C@H](CCN)NC(=O)[C@H](Cc2c[nH]c3ccccc23)NC(=O)[C@H](CCN)NC(=O)[C@H](CCN)NC(=O)[C@H](CCCCN)NC(=O)[C@H](CCN)NC1=O [Example 2] (cyclo(TWI[Dab]K[Dab][Dab]W[Dab][Dab]G[Dab][dP]P)) | 0.3% | 50 µM | 0.15 µg/mL | 300 min | 300 min | 0.18 µg/mL (≈ 0.115 µM) | 0.10 µg/mL (≈ 0.0638 µM) | 0.16 µg/mL (≈ 0.102 µM) | 0.24 µg/mL (≈ 0.153 µM) | 0.04 µg/mL (≈ 0.0255 µM) |  |  |  |  |  |  |  |  |  | 
2 | CC[C@H](C)[C@@H]1NC(=O)[C@H](Cc2c[nH]c3ccccc23)NC(=O)[C@H](C)NC(=O)[C@@H]2CCCN2C(=O)[C@H]2CCCN2C(=O)[C@H](CCN)NC(=O)[C@H](C)NC(=O)[C@H](CCN)NC(=O)[C@H](CCN)NC(=O)[C@H](Cc2c[nH]c3ccccc23)NC(=O)[C@H](CCN)NC(=O)[C@H](CCN)NC(=O)[C@H](CCCCN)NC(=O)[C@H](CCN)NC1=O [Example 22] (cyclo(AWI[Dab]K[Dab][Dab]W[Dab][Dab]A[Dab][dP]P)) | 0.2% | 50 µM | 0.12 µg/mL | 300 min | 300 min | 0.16 µg/mL (≈ 0.103 µM) | 0.09 µg/mL (≈ 0.058 µM) | 0.09 µg/mL (≈ 0.058 µM) | 0.24 µg/mL (≈ 0.155 µM) | 0.02 µg/mL (≈ 0.0129 µM) |  |  |  |  |  |  |  |  |  | 
3 | CC[C@H](C)[C@@H]1NC(=O)[C@H](Cc2c[nH]c3ccccc23)NC(=O)[C@H]([C@@H](C)O)NC(=O)[C@@H]2CCCN2C(=O)[C@H]2CCCN2C(=O)[C@H](CCC(N)=O)NC(=O)[C@H](C)NC(=O)[C@H](CCN)NC(=O)[C@H](CCN)NC(=O)[C@H](Cc2c[nH]c3ccccc23)NC(=O)[C@H](CCN)NC(=O)[C@H](CCN)NC(=O)[C@H](CCCCN)NC(=O)[C@H](CCC(N)=O)NC1=O [Example 40] (cyclo(TWIQK[Dab][Dab]W[Dab][Dab]AQ[dP]P)) | 0.7% | 50 µM | 0.55 µg/mL |  |  | 0.50 µg/mL (≈ 0.305 µM) | 0.50 µg/mL (≈ 0.305 µM) | 0.50 µg/mL (≈ 0.305 µM) | 1.00 µg/mL (≈ 0.611 µM) | 0.25 µg/mL (≈ 0.153 µM) | 6 | 0 | 6 | 0 | 2 | 4 | 0 | 6 | 0 | 6
4 | CC(C)[C@@H]1NC(=O)[C@H](Cc2c[nH]c3ccccc23)NC(=O)[C@H]([C@@H](C)O)NC(=O)[C@@H]2CCCN2C(=O)[C@H]2CCCN2C(=O)[C@H](CCN)NC(=O)[C@H](C)NC(=O)[C@H](CCN)NC(=O)[C@H](CCN)NC(=O)[C@H](Cc2c[nH]c3ccccc23)NC(=O)[C@H](CCN)NC(=O)[C@H](CCN)NC(=O)[C@H](CCCCN)NC(=O)[C@H](CCN)NC1=O [Example 32] (cyclo(TWV[Dab]K[Dab][Dab]W[Dab][Dab]A[Dab][dP]P)) | 0% | 50 µM | 0.09 µg/mL | 300 min | 300 min | 0.10 µg/mL (≈ 0.0638 µM) | 0.05 µg/mL (≈ 0.0319 µM) | 0.05 µg/mL (≈ 0.0319 µM) | 0.22 µg/mL (≈ 0.14 µM) | 0.02 µg/mL (≈ 0.0128 µM) |  |  |  |  |  |  |  |  |  | 
